Consider six molecules from patent US20100227853A1, “INHIBITORS OF CYCLIC AMP PHOSPHODIESTERASES” (Trustees of Boston College, priority 2008, published 2010).

One assay concerns the target PDE4A (Homo sapiens, UniProt P27815). The assay can be described thus: in vitro enzyme assay PDE4A (Table 7). As to conditions: 2 micromolar compound; read-out: percent of PDE activity present, PDE4A. The format is biochemical.
Another assay concerns the target PDE7A (Homo sapiens, UniProt Q13946). Nature of the assay: in vitro enzyme assay PDE7A. The format is biochemical. On the set-up: made in house; host or cells: E. coli. As to conditions: 2 micromolar compound; read-out: percent of PDE activity present, PDE7A.
A further assay has as its target PDE4B (Homo sapiens, UniProt Q07343). The assay can be described thus: in vitro enzyme assay PDE4B (Table 7). As to conditions: 2 micromolar compound; read-out: percent of PDE activity present, PDE4B. The format is biochemical.
The target in the next assay is PDE4D (Homo sapiens, UniProt Q08499). The assay can be described thus: in vitro enzyme assay PDE4D (Table 7). The format is biochemical. As to conditions: 2 micromolar compound; read-out: percent of PDE activity present, PDE4D.
The next assay deals with T1, PDE4D3 (Homo sapiens, UniProt Q08499).
T1 construct: targets used in the assays are full-length proteins (as opposed to simply the catalytic domain); expressed in transfected cells; host or cells: Schizosaccharomyces pombe, PDE gene integrated in place of cgs2
Nature of the assay: cAMP response in yeast strain expressing PDE4D3. The format is cell-based.

The target of the next assay is T2, PDE4D2 (Homo sapiens, UniProt Q08499).
T2 construct: targets used in the assays are full-length proteins (as opposed to simply the catalytic domain); expressed in transfected cells; host or cells: Schizosaccharomyces pombe
Nature of the assay: 5FOA growth assay in fission yeast strain expressing PDE4D2. Type of assay: cell-based. Conditions: OD600 0.6; read-out: ED50 for 5FOA growth assays, PDE4D2. As for the experimental part: Cells were pregrown in EMM medium [MP Biomedicals (Solon, Ohio), 3% glucose, filter-sterilized to avoid carmelization, which would introduce variability into the optical density of the medium] containing from 0 mM to 2.5 mM cAMP (or either 0.5 mM or 1.0 mM cGMP). This was to repress expression of the fbp1-ura4 reporter prior to exposure of cells to 5FOA medium. Cells were grown at 30° C. to exponential phase (approximately 10^7 cells/ml). […] Starting cell concentrations ranged from 0.5×10^5 to 4×10^5 cells/ml depending on the screening strain. […] Other positive control dishes contained 5 mM cAMP in the 5FOA medium for PDEs that lack appropriate control compounds. Cultures were grown for 48 hours at 30° C., sealed in an airtight container with moist paper towels to prevent evaporation. Optical densities (OD600) of cultures were measured using a microplate reader. Bioinformatic analysis of the results to determine composite Z scores was performed as previously described (1, 3).

The next assay concerns the target T3, PDE4A10 (Homo sapiens, UniProt P27815).
T3 construct: made in house; host or cells: E. coli
The assay can be described thus: in vitro enzyme assay, E. coli expressed and purified PDE4A10. The format is biochemical. As to conditions: read-out: IC50 (or AC200), PDE4A10.

In the next assay the target is T4, PDE4D2-CAT (Homo sapiens, UniProt Q08499).
T4 construct: 86-413; made in house; host or cells: E. coli
The assay can be described thus: in vitro enzyme assay, catalytic fragment of PDE4D2 (residues 86-413). Type of assay: biochemical. As to conditions: catalytic fragment; AC200 = [Compound] that doubles PDE activity; read-out: IC50 (or AC200), PDE4D2-CAT.

For another assay, the target named is PDE4B2 (Homo sapiens, UniProt Q07343). The assay can be described thus: in vitro enzyme assay, E. coli expressed and purified PDE4B2. Type of assay: biochemical. On the set-up: targets used in the assays are full-length proteins (as opposed to simply the catalytic domain). Conditions: read-out: IC50 (or AC200), PDE4B2.
A further assay addresses T5, PDE4D2-FL (Homo sapiens, UniProt Q08499).
T5 construct: 1-507; made in house; host or cells: E. coli
Nature of the assay: in vitro enzyme assay, full-length PDE4D2 (residues 1-507). Type of assay: biochemical. Conditions: read-out: IC50 (or AC200), PDE4D2-FL.

T1 sequence (Q08499 1-673 isoform Q08499-2): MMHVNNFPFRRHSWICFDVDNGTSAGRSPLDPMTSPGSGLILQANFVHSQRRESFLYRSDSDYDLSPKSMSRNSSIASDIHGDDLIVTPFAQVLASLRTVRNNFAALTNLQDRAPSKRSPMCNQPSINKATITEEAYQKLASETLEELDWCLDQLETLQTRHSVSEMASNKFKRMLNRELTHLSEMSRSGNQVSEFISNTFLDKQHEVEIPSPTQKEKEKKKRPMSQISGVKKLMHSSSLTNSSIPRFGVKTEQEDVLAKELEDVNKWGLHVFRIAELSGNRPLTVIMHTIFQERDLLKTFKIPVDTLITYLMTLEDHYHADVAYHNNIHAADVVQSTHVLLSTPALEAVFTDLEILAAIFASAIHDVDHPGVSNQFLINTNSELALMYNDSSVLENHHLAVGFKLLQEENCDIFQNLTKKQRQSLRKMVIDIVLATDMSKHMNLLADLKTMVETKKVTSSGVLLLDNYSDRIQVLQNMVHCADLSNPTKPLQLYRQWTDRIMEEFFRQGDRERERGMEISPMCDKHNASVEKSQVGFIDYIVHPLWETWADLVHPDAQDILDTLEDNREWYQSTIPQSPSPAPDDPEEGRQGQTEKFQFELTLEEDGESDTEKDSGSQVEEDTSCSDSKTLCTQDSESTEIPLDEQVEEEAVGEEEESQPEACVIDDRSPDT
T2 sequence (Q08499 303-809): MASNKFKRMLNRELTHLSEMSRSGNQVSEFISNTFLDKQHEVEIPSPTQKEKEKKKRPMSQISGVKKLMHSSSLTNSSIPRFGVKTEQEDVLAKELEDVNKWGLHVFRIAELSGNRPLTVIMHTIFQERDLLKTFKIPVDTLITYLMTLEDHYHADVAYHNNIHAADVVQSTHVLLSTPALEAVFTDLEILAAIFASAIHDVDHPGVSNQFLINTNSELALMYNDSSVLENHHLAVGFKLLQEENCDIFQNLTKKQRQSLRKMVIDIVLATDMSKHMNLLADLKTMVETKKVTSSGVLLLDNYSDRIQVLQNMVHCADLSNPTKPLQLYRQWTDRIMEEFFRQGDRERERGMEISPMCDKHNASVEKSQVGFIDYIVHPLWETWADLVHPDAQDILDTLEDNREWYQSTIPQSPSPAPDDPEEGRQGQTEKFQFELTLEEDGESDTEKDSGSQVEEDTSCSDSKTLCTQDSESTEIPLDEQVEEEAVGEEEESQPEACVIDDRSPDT
PDE4B2, sequence (Q07343 1-564 isoform Q07343-2, species assumed): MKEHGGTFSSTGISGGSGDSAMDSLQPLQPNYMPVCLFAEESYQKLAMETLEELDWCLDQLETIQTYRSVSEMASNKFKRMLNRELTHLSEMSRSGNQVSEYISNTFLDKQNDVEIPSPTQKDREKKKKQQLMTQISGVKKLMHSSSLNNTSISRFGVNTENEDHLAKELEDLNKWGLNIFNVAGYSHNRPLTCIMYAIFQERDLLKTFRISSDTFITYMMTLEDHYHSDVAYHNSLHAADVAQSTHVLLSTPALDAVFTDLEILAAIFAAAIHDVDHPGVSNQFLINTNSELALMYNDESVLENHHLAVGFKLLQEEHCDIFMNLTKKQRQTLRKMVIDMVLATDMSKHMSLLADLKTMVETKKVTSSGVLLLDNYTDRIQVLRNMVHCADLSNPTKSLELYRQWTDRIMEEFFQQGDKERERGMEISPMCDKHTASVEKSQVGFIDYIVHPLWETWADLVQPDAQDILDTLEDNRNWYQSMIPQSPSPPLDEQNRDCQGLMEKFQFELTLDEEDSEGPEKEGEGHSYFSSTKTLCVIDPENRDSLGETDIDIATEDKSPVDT
T3 sequence (P27815 1-825 isoform P27815-6, species assumed): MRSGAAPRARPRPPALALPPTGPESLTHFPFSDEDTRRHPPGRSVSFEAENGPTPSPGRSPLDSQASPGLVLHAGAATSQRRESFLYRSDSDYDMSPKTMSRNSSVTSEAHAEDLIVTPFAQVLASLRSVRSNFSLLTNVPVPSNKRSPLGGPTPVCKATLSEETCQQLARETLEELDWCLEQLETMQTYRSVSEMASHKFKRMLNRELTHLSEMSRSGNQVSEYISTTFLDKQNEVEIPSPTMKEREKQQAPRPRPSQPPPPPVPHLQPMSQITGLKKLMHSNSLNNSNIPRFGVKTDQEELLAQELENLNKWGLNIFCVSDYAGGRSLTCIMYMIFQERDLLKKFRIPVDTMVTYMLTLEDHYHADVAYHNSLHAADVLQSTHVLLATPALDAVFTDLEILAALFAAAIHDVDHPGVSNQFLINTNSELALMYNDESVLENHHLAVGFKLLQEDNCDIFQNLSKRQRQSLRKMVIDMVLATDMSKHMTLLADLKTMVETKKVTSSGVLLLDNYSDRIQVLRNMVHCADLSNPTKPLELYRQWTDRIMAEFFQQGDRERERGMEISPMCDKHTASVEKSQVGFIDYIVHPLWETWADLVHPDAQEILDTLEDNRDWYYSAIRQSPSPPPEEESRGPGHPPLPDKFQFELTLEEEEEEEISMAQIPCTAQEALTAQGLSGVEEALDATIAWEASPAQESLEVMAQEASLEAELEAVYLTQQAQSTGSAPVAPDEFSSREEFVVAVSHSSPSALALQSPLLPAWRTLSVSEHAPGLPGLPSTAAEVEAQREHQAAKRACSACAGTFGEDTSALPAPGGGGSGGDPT
PDE7A, sequence (Q13946 whole entry): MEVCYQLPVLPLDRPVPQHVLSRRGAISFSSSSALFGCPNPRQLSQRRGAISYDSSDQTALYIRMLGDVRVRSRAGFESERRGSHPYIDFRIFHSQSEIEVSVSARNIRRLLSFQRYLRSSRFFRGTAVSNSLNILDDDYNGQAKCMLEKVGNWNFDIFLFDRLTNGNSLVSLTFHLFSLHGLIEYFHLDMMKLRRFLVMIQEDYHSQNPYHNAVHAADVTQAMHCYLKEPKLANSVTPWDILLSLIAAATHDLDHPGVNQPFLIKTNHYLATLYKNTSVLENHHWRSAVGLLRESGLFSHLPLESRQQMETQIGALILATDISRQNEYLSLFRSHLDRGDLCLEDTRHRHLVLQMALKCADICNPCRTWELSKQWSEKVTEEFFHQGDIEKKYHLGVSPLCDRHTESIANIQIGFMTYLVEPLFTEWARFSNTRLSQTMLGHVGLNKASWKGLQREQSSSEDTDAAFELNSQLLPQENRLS
PDE4A, sequence (P27815 whole entry, species assumed): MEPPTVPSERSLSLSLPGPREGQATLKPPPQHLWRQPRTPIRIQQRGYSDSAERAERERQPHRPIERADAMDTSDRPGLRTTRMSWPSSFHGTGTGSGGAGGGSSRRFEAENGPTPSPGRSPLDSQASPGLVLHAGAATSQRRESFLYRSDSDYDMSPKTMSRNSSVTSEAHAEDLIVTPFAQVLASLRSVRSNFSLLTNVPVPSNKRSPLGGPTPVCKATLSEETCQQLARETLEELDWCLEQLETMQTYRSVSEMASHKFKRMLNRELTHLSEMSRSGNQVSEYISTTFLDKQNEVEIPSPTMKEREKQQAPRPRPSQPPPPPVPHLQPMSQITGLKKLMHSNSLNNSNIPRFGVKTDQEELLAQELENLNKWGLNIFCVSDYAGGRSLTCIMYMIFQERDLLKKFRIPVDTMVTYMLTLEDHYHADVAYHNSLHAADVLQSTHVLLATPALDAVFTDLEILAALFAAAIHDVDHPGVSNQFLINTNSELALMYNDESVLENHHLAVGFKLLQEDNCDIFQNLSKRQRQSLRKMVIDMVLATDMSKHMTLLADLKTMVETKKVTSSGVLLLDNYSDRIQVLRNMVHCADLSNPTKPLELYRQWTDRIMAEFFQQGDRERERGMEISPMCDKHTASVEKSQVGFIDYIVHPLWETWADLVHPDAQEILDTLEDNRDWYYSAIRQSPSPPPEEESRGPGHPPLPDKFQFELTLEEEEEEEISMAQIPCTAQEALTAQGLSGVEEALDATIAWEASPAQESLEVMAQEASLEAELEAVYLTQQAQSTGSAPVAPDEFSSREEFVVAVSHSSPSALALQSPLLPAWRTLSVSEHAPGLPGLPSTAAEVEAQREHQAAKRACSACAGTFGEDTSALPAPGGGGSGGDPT
T5 sequence (Q08499 303-809): as the sequence (Q08499 303-809) above
T4 sequence (Q08499 388-715): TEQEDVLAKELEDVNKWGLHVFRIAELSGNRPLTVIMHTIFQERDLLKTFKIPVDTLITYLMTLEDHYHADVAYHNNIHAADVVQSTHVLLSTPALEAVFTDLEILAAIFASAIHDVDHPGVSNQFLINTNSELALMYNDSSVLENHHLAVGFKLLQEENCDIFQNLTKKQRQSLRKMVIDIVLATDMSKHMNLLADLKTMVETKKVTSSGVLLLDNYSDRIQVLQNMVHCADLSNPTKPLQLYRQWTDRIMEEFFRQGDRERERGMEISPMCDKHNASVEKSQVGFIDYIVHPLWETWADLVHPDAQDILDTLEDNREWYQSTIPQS
PDE4B, sequence (Q07343 whole entry, species assumed): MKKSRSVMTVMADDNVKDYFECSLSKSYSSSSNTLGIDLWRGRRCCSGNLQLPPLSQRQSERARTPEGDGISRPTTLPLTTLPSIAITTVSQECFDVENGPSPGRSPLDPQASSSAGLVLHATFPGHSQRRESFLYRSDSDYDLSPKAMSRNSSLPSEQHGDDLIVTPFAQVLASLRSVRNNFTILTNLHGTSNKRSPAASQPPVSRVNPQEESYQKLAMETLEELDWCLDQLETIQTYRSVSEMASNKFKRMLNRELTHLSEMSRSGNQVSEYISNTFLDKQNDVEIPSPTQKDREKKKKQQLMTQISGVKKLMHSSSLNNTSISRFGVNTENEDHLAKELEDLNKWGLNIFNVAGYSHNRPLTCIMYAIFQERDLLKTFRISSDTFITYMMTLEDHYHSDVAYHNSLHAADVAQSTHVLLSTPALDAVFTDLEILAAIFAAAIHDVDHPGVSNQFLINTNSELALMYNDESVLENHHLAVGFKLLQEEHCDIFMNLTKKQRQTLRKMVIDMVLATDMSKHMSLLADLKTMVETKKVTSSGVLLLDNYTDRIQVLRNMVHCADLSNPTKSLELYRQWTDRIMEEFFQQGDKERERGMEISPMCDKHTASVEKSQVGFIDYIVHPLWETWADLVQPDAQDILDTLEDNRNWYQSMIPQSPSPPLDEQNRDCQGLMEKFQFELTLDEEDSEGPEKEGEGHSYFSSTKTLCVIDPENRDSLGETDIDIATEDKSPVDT

On to `Cc1c(C(=O)Nc2ccc(F)cc2F)sc2ncnc(N(C)c3ccccc3)c12` [Compound 58-9], for which the remaining activity at 2 µM was found to be 84% at PDE4A, 52% on PDE7A, 72% at PDE4B and 77% on PDE4D.

As for `COC(=O)C1=C(C)N(C2CCCCC2)C(=O)/C1=C\c1cccs1` [Compound 22], on PDE4D3, the “cAMP Response (% rolipram), 4D3” value is reported as 12.00 % rolipram.

Take `Cc1sc2ncnc(Nc3ccccc3)c2c1C` [BC64]: the EC50 on PDE4D2 was > 200000 nM.

On to `CCN(CC)c1ncnc2sc3c(c12)CCCC3` [BC44], for which the EC50 on PDE4D2 amounted to 140000 nM.

As to `N#Cc1sc2sc(C#N)c(-c3ccco3)c2c1N` [Compound 30], the IC50 on PDE4A10 is > 2000 nM; at PDE4D2-CAT, < 100 nM; at PDE4B2 it was ~2000 nM; on PDE4D2-FL, > 2000 nM.

As for `COC(=O)C1=C(C)N(c2ccccc2Cl)C(=O)/C1=C\c1cccs1` [Compound 27], the “cAMP Response (% rolipram), 4D3” value at PDE4D3 was found to be 8.00 % rolipram.
